Measured values from patent US12570675B2, “Boronic acid compounds” (LG CHEM, LTD., priority 2020, dated 2026).

Legend:
[1] = molecular target: Proteasome chymotrypsin-like activity (S26 protein from RPMI8226 cells) (Homo sapiens, UniProt P28074); type: biochemical; details: S26 protein from RPMI8226 cell extract 2 ug/well, substrate 20 uM, 37° C., 90 minutes; read-out: Proteasome chymotrypsin-like activity inhibition IC50
Method in brief: (§1)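 Inhibition is measured in crude proteasome (S26) from RPMI8226 cells at 2 ug/well, using 20 uM substrate specific to each activity: Suc-LLVY-AMC for chymotrypsin-like, Z-LLE-AMC for caspase-like. Compounds span a dilution series from 10 uM.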

[2] = molecular target: Proteasome caspase-like activity (S26 protein from RPMI8226 cells) (Homo sapiens (Human), UniProt P28072); test: Proteasome caspase-like activity inhibition (Z-Leu-Leu-Glu-AMC fluorogenic substrate, RPMI8226 cell extract); type: biochemical; details: S26 protein from RPMI8226 cell extract 2 ug/well, substrate 20 uM, 37° C., 90 minutes
Chain of Proteasome caspase-like activity (S26 protein from RPMI8226 cells) (P28072 whole entry): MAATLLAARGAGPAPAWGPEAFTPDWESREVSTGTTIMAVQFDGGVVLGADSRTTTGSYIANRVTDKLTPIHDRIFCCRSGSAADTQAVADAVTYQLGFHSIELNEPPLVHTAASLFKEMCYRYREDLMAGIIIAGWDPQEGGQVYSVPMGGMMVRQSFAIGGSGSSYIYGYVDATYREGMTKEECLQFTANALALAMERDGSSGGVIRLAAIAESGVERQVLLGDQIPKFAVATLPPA
Method in brief: as §1

Chain of Proteasome chymotrypsin-like activity (S26 protein from RPMI8226 cells) (P28074 60-263 limits assumed): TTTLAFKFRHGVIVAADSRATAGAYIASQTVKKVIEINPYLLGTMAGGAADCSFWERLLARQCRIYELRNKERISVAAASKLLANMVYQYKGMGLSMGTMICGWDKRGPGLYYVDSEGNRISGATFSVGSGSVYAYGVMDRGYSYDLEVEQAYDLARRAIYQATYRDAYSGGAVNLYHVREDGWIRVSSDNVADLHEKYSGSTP

| Structure (SMILES) | IC50 [1] [nM] | IC50 [2] [nM] |
| --- | --- | --- |
| Cc1nc2ccccn2c1C(=O)NCC1=NOC(Cc2ccccc2)(C(=O)N[C@@H](CC(C)C)B(O)O)C1 (stereo partly drawn) [Example 133, ((1R)-1-(5-benzyl-3-((2-methylimidazo[1,2-a]pyridin-3-carboxamido)methyl)-4,5-dihydroisoxazol-5-carboxamido)-3-methylbutyl)boronic acid] | < 10 | > 500 |
| CC(C)C[C@H](NC(=O)C1(Cc2ccccc2)CC(CNC(=O)c2cccc3ccccc23)=NO1)B(O)O (stereo partly drawn) [Example 92, ((1R)-1-(3-((1-naphthamido)methyl)-5-benzyl-4,5-dihydroisoxazol-5-carboxamido)-3-methylbutyl)boronic acid] | < 10 | > 500 |
| CC(C)C[C@H](NC(=O)C1(Cc2ccccc2)CC(CNC(=O)c2cc(Cl)ccc2Cl)=NO1)B(O)O (stereo partly drawn) [Example 85, ((1R)-1-(5-benzyl-3-((2,5-dichlorobenzamido)methyl)-4,5-dihydroisoxazol-5-carboxamido)-3-methylbutyl)boronic acid] | < 10 | > 1000 |
| CC(C)C[C@H](NC(=O)C1(Cc2ccccc2)CC(CNC(=O)c2c[nH]c3ccccc23)=NO1)B(O)O (stereo partly drawn) [Example 124, ((1R)-1-(3-((1H-indol-3-carboxamido)methyl)-5-benzyl-4,5-dihydroisoxazol-5-carboxamido)-3-methylbutyl)boronic acid] | < 10 | > 500 |
| Cc1nc(C(=O)NCC2=NOC(Cc3ccccc3)(C(=O)N[C@@H](CC(C)C)B(O)O)C2)c(Cl)s1 (stereo partly drawn) [Example 119, ((1R)-1-(5-benzyl-3-((5-chloro-2-methylthiazol-4-carboxamido)methyl)-4,5-dihydroisoxazol-5-carboxamido)-3-methylbutyl)boronic acid] | < 10 | > 1000 |
| Cc1nc(C)c(COCC2=NOC(Cc3ccccc3)(C(=O)N[C@@H](CC(C)C)B(O)O)C2)s1 (stereo partly drawn) [Example 51, ((1R)-1-(5-benzyl-3-(((2,4-dimethylthiazol-5-yl)methoxy)methyl)-4,5-dihydroisoxazol-5-carboxamido)-3-methylbutyl)boronic acid] | < 10 | > 500 |
| CC(C)C[C@H](NC(=O)C1(COc2ccccc2)CC(CNC(=O)c2nccc3ccccc23)=NO1)B(O)O (stereo partly drawn) [Example 126, ((1R)-1-(3-((isoquinolin-1-carboxamido)methyl)-5-(phenoxymethyl)-4,5-dihydroisoxazol-5-carboxamido)-3-methylbutyl)boronic acid] | < 10 | > 500 |
| CC(C)C[C@H](NC(=O)C1(Cc2ccccc2)CC(CNC(=O)c2cnc3c(ccn3C(C)C)c2)=NO1)B(O)O (stereo partly drawn) [Example 212, ((1R)-1-(5-benzyl-3-((1-isopropyl-1H-pyrrolo[2,3-b]pyridin-5-carboxamido)methyl)-4,5-dihydroisoxazol-5-carboxamido)-3-methylbutyl)boronic acid] | < 10 | > 100 |
| CC(C)C[C@H](NC(=O)C1CC([C@@H](NC(=O)c2cc(Cl)ccc2Cl)C(C)C)=NO1)B(O)O (stereo partly drawn) [Example 72, ((1R)-1-(3-((S)-1-(2,5-dichlorobenzamido)-2-methylpropyl)-4,5-dihydroisoxazol-5-carboxamido)-3-methylbutyl)boronic acid] | < 10 | > 100 |
| O=C(NCC1=NOC(Cc2ccccc2)(C(=O)N[C@@H](Cc2ccccc2)B(O)O)C1)c1ccccc1 (stereo partly drawn) [Example 292, ((1R)-1-(3-(benzamidomethyl)-5-benzyl-4,5-dihydroisoxazol-5-carboxamido)-2-phenylethyl)boronic acid] | < 10 | > 1000 |
| CC(C)C[C@H](NC(=O)C1CC(CNC(=O)c2cccc(Oc3ccccc3)c2)=NO1)B(O)O (stereo partly drawn) [Example 71, ((1R)-3-methyl-1-(3-((3-phenoxybenzamido)methyl)-4,5-dihydroisoxazol-5-carboxamido)butyl)boronic acid] | < 25 | > 250 |

The remaining lines, values ahead:

| IC50 [1] [nM] | IC50 [2] [nM] | Structure (SMILES) |
| --- | --- | --- |
| < 10 | > 500 | CC(C)C[C@H](NC(=O)C1(Cc2ccccc2)CC(CNC(=O)c2cccc3c2ccn3C(C)C)=NO1)B(O)O (stereo partly drawn) [Example 134, ((1R)-1-(5-benzyl-3-((1-isopropyl-1H-indol-4-carboxamido)methyl)-4,5-dihydroisoxazol-5-carboxamido)-3-methylbutyl)boronic acid] |
| < 10 | > 1000 | Cc1cc(C(=O)NCC2=NOC(Cc3ccccc3)(C(=O)N[C@@H](CC(C)C)B(O)O)C2)n(C2CCCC2)n1 (stereo partly drawn) [Example 196, ((1R)-1-(5-benzyl-3-((1-cyclopentyl-3-methyl-1H-pyrazol-5-carboxamido)methyl)-4,5-dihydroisoxazol-5-carboxamido)-3-methylbutyl)boronic acid] |
| < 10 | > 2500 | O=C(N[C@@H](Cc1ccccc1)B(O)O)C1(Cc2ccccc2)CC(COCc2ccccc2)=NO1 (stereo partly drawn) [Example 257, ((1R)-1-(5-benzyl-3-((benzyloxy)methyl)-4,5-dihydroisoxazol-5-carboxamido)-2-phenylethyl)boronic acid] |
| < 10 | > 500 | CC(C)C[C@H](NC(=O)C1(Cc2ccccc2)CC(CNC(=O)c2cccc3[nH]ccc23)=NO1)B(O)O (stereo partly drawn) [Example 127, ((1R)-1-(3-((1H-indol-4-carboxamido)methyl)-5-benzyl-4,5-dihydroisoxazol-5-carboxamido)-3-methylbutyl)boronic acid] |
| < 10 | > 2500 | CC(C)C[C@H](NC(=O)C1(Cc2ccccc2)CC(CNC(=O)c2cc(C(F)(F)F)ccc2Cl)=NO1)B(O)O (stereo partly drawn) [Example 112, ((1R)-1-(5-benzyl-3-((2-chloro-5-(trifluoromethyl)benzamido)methyl)-4,5-dihydroisoxazol-5-carboxamido)-3-methylbutyl)boronic acid] |
| < 10 | > 1000 | Cc1cc(C(=O)NCC2=NOC(Cc3ccccc3)(C(=O)N[C@@H](CC(C)C)B(O)O)C2)n(-c2ccc(F)cc2)n1 (stereo partly drawn) [Example 247, ((1R)-1-(5-benzyl-3-((1-(4-fluorophenyl)-3-methyl-1H-pyrazol-5-carboxamido)methyl)-4,5-dihydroisoxazol-5-carboxamido)-3-methylbutyl)boronic acid] |
| < 10 | > 500 | CC(C)C[C@H](NC(=O)C1(Cc2ccccc2)CC(CNC(=O)c2ccnn2C(C)C)=NO1)B(O)O (stereo partly drawn) [Example 171, ((1R)-1-(5-benzyl-3-((1-isopropyl-1H-pyrazol-5-carboxamido)methyl)-4,5-dihydroisoxazol-5-carboxamido)-3-methylbutyl)boronic acid] |
| < 10 | > 500 | Cc1ccccc1CC1(C(=O)N[C@@H](CC(C)C)B(O)O)CC(CNC(=O)c2nccc3ccccc23)=NO1 (stereo partly drawn) [Example 154, ((1R)-1-(3-((isoquinolin-1-carboxamido)methyl)-5-(2-methylbenzyl)-4,5-dihydroisoxazol-5-carboxamido)-3-methylbutyl)boronic acid] |
